Assay results: PMC9212912 (Structure (London, England : 1993), 2022)

Test system: SARS-CoV-2 (Delta variant, pangolin linage B.1.617.2)
Assay: microbe, parasite or virus in culture
Type: cell-based

Structure (SMILES)	inhibition at 0.01 µM (Severe acute respiratory syndrome coronavirus 2, Calu-3, 24 h, read-out: Inhibition of SARS-CoV-2 infection in Calu-3 cells) [%]	Inhibition of SARS-CoV-2 infection in Calu-3 cells (0.01 µM) [%]
Cc1sc2c(c1C)C(c1ccc(Cl)cc1)=N[C@@H](CC(=O)Nc1ccc(O)cc1)c1nnc(C)n1-2 [OTX015]	69	
Cc1sc2c(c1C)C(c1ccc(Cl)cc1)=N[C@@H](CC(=O)OC(C)(C)C)c1nnc(C)n1-2 [JQ1]		72
